Data reported in US12187717B2, “Compound and use thereof in treating autoimmune diseases” (PARENCHYMA BIOTECH INC., priority 2022, dated 2025).

Tests used:
[1] = Pharmacokinetic parameters after oral or intravenous administration; type: in vivo; conditions: rats
Description: For rats, an oral administration group was fasted for 16 hours, and an intravenous administration group was subjected to intravenous administration with 10 mL/kg of solution prepared by completely dissolving Compound 6 in an ethanol-Cremophor EL mixture corresponding to 7.5% (v/v) of the administered dose, and then diluting in phosphate buffered saline so as to be the final ethanol:Cremophor EL:phosphate buffered saline (0.375:0.375:9.25, v/v/v), without fasting, at the dose concentration listed in Table 3. The oral administration group was supplied with food about 4 hours after administration. Blood collection was performed on the intravenous administration group after 0.083, 0.5, 1, 2, 4, 8, 24 hours from the administration and on the oral administration group after 0.5, 1, 2, 4, 8, 12, 24 hours from the administration, and plasma was recovered using centrifugation. In the recovered plasma, the drug concentration in the plasma was measured using UHPLC-MS/MS method.

[2] = pH-metric solubility and logP (SIRIUS T3); type: physicochemical; conditions: pH-metric results, SIRIUS T3
Description: After dissolving Compound 6 in ethanol, the solubility was measured and analyzed using a SIRIUS T3 machine.

CYP1A2 = molecular target: T1, CYP1A2 (Homo sapiens, UniProt P05177); assay: CYP isoenzyme activity; type: in vitro ADME; conditions: 10 μM
T1 sequence (P05177 1-516): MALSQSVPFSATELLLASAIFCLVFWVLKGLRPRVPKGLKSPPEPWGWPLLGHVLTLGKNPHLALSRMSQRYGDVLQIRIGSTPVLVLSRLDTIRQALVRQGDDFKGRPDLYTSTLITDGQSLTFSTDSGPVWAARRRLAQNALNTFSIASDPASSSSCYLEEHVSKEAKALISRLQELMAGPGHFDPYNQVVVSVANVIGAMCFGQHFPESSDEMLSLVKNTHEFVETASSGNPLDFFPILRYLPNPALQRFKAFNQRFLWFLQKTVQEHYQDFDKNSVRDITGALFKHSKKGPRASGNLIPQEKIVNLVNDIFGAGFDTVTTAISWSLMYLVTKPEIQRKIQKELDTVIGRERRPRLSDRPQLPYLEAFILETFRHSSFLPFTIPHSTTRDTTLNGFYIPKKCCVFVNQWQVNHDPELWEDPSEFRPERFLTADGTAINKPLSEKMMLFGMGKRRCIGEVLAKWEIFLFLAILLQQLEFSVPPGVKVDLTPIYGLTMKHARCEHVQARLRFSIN

CYP2C9 = CYP2C9 (Homo sapiens, UniProt P11712); assay: CYP isoenzyme activity; type: in vitro ADME; conditions: 10 μM
CYP2C19 = CYP2C19 (Homo sapiens, UniProt P33261); assay: CYP isoenzyme activity; type: in vitro ADME; conditions: 10 μM
CYP3A4 = CYP3A4 (Homo sapiens, UniProt P08684); conditions: 2 days, 10 μM
Description: Live human hepatocyte cell lines (Corning, Cat No. 454551) were collected using a plating medium, seeded on a 24-well plate so that a cell density thereof was 0.4×10^6 cells/well, and cultured for 2 to 4 hours. After replacing the plating medium with a hepatocyte culture medium, the hepatocytes were cultured for 24 hours. After culturing for 24 hours, hepatocytes were treated with Compound 6 at 1, 5, 25 µM. The medium containing the compound was changed every 24 hours for 2 days. The cultured cells were recovered to prepare mRNA samples. mRNA was extracted from the recovered cells by a phenol-chloroform sedimentation method using TRIZOL reagent (Invitrogen, Cat No. 15596018). From the isolated RNA, cDNA was synthesized by reverse transcription, followed by measuring drug metabolizing enzymes CYP1A2, CYP2C9, CYP2C19, CYP2B6, and CYP3A4 through real-time PCR analysis using the Quant Studio™ 7 Flex Real-Time PCR System (Applied Biosystems, CA). Relative values of the enzyme expression levels were compared by the ΔΔct method using GAPDH as a control enzyme. Herein, one (1) fold was set using the control. Results are expressed as % of control compared to control sample.

CYP2D6 = CYP2D6 (Homo sapiens, UniProt P10635); conditions: 2 days, 10 μM
[3] = rat, plasma, Intravenous (IV), 1 mg/kg
[4] = rat, plasma, Oral (PO), 10 mg/kg
[5] = rat, plasma, Oral (PO), 100 mg/kg
[6] = Oral (PO), 10 mg/kg (reference dose, dose ratio 1)
[7] = Oral (PO), 100 mg/kg relative to 10 mg/kg (dose ratio 10.0)

Sequence of CYP2C19 (P33261 whole entry): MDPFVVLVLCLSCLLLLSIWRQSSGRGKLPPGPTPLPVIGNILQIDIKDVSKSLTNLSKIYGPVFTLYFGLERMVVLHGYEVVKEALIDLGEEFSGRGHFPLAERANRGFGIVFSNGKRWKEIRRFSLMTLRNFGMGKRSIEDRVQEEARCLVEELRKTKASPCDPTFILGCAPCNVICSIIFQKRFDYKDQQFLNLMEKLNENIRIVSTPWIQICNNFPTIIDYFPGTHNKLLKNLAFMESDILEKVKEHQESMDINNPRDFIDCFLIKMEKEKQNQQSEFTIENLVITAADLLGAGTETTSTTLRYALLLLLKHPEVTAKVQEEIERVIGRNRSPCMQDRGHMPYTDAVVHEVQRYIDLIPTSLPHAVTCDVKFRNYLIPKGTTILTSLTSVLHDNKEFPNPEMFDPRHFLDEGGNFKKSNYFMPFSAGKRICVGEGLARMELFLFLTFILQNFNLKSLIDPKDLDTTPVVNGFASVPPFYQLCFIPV
Sequence of CYP3A4 (P08684 whole entry): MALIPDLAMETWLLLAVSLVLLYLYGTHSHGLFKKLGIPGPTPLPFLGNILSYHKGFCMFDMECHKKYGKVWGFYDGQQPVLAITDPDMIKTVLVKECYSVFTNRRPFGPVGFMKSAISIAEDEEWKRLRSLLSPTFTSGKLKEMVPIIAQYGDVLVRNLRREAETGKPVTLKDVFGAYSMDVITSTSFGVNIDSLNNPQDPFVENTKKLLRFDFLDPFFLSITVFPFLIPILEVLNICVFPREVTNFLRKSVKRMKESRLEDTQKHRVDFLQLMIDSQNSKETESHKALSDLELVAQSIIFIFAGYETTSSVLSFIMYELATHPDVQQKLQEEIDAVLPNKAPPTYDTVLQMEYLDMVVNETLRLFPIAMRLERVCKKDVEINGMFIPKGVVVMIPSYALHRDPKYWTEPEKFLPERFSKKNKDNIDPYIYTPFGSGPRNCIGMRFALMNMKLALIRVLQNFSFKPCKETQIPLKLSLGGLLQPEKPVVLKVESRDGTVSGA
Sequence of CYP2C9 (P11712 whole entry): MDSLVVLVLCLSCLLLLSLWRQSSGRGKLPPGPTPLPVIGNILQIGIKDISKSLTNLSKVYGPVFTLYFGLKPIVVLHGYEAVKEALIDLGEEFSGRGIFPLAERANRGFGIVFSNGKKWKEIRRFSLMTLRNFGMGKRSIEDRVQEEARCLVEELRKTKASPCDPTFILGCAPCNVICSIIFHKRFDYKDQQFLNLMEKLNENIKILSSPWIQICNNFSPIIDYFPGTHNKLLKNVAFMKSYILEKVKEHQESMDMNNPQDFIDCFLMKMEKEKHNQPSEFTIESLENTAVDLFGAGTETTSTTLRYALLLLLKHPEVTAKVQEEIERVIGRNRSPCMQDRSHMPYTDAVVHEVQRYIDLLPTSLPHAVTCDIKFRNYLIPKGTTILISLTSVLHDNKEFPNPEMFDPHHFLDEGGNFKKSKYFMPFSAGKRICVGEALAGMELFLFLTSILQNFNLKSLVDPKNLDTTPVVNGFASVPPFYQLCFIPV
Sequence of CYP2D6 (P10635 whole entry): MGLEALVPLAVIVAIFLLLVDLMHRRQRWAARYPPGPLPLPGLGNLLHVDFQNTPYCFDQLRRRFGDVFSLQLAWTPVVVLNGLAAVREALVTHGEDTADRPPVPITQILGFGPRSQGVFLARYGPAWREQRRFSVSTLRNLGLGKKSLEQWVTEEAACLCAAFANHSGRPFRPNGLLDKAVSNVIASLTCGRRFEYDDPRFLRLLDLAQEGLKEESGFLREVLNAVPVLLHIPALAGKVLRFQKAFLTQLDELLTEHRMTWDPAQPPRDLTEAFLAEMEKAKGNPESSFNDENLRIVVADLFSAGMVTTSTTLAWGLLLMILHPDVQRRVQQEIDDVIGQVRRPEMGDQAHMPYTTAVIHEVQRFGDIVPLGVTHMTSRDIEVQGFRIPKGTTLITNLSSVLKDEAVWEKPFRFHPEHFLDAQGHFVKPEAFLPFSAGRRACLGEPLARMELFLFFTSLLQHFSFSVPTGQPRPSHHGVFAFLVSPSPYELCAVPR

- AUC(0-t) [1, 3]: 183 ng·h/mL
- C0 [1, 3]: 406 ng/mL
- clearance [1, 3]: 7.17 mL/min/kg
- half-life [1, 3]: 48 min
- Vd ([1]; rat, plasma, Intravenous (IV), 1 mg/kg, read-out: Vdss): 0.311 L/kg
- AUC(0-t) [1, 4]: 366 ng·h/mL
- Cmax [1, 4]: 126 ng/mL
- Tmax [1, 4]: 60 min
- half-life [1, 4]: 54 min
- bioavailability ([1]; rat, plasma, Oral (PO), 10 mg/kg, read-out: Bioavailability (F %)): 20%
- AUC(0-t) [1, 5]: 644 ng·h/mL
- Cmax [1, 5]: 152 ng/mL
- Tmax [1, 5]: 30 min
- half-life [1, 5]: 408 min
- AUClast Ratio [1, 6]: 1.0
- Cmax ratio [1, 6]: 1.0
- AUClast Ratio [1, 7]: 1.8
- Cmax ratio [1, 7]: 1.2
- logP [2]: 2.8
- pH-metric solubility, Molarity [2]: 3.65 μM
- pH-metric solubility, Weight/ml [2]: 1.248 μg/ml
- CYP1A2 activity (CYP1A2): 64.6 % of Control Activity
- CYP2C9 activity (CYP2C9): 91.9 % of Control Activity
- CYP2C19 activity (CYP2C19): 24.4 % of Control Activity
- inhibition of the enzyme activity of CYP2C19 (CYP2C19): 24.4%
- CYP3A4 activity (CYP3A4): 107.6 % of Control Activity
- CYP2D6 activity (CYP2D6): 93.3 % of Control Activity
SMILES: O=C(Cc1c[nH]c2ccc(Cl)cc12)Nc1nc2ccccc2s1 [Comparative Example 1, N-(benzo[d]thiazol-2-yl)-2-(5-chloro-1H-indol-3-yl)acetamide, reference compound]
